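Compound exposure: 48 hours, 5 concentrations, 96-well plates. The concentration for full growth arrest is given as TGI.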
Tested on: MDA-MB-435
Test: growth of human tumour cells (NCI), 48 h

Row | SMILES | TGI [µM]
1 | CC(=O)OC1(C)C=CC(=O)C=C1 | > 100
2 | COc1ccc(C2C3=C(Nc4ncnn42)c2ccccc2OC3c2ccccc2)cc1 (stereo not given) | 23.7
3 | O=c1oc2cc(O)ccc2c(O)c1C(c1ccccc1F)c1c(O)c2ccc(O)cc2oc1=O | > 100
4 | COC(=O)C(COC(C)=O)NC(=O)/C=C/c1ccc(O)c(OC(C)=O)c1 (stereo not given) | > 100
5 | CCOP(=O)(CN1CCNCCNCC1)OCC | > 100
6 | CC12CCC([C@H](C(O)C3CCCCC3)C1=O)C2(C)C (stereo not given in full) | > 100
7 | CC(C)Oc1ccc2c(c1)OCC1Cc3ccccc3OC21 (stereo not given) | > 100
8 | O=C1C(Cl)C(c2cccc(Cl)c2)N1c1ccc(-n2c(=S)[nH]c3ccccc3c2=O)cc1 (stereo not given) | 36.6
9 | COc1cc2c(cc1OC)CCc1cc(OC)c(OC)cc1CC2 | > 100
10 | CC(=O)N[C@@H](Cc1ccc(O)cn1)C(=O)NCc1cccc(Cl)c1 | > 100
11 | Cc1nn(C(=O)Cc2ccccc2)c2c1C(c1ccc(N(C)C)cc1)SC(N)=N2 (stereo not given) | > 100
12 | CNc1nc2n(CCO)c(-c3ccccc3)c(-c3ccccc3)nc-2c(=O)n1 | > 50
13 | NC(CCC(=O)O)C(=O)N1CCN(c2nc(N3CCCC3)c3nc(Cl)c(NCc4ccccc4)nc3n2)CC1 (stereo not given) | 26.2
14 | COC(=O)C(NC(=O)c1ccccc1)c1ccco1 (stereo not given) | > 100
15 | c1ccc2c(c1)nc1n2CNC1 | > 100
16 | Cc1ccc(C)c(COCCOCn2ccc(N)nc2=O)c1 | > 100
17 | CN(C)/C=N/S(=O)(=O)c1nn2c(C=O)c(-c3ccc(Cl)cc3)nc2s1 | 7.92
18 | NNc1nncc2n[nH]nc12 | > 100
19 | COC(=O)C1=C(C(=O)OC)c2cc(OC)ccc2C(C(=S)N(C)C)S1 (stereo not given) | > 100
20 | O=C1CCCC2(c3ccccc3)Nc3ccccc3N12 (stereo not given) | > 100

Tested on: HOP-62 NSCLC
Test: growth of human tumour cells (NCI), 48 h

Row | SMILES | TGI [µM]
21 | Cc1cc(=O)n2nc(CN3CCCCC3)sc2n1 | > 100
22 | CC(=O)OC1(C)C=CC(=O)C=C1 | 75.7
23 | COc1ccc(C2C3=C(Nc4ncnn42)c2ccccc2OC3c2ccccc2)cc1 (stereo not given) | > 100
24 | O=c1oc2cc(O)ccc2c(O)c1C(c1ccccc1F)c1c(O)c2ccc(O)cc2oc1=O | > 100
25 | COC(=O)C(COC(C)=O)NC(=O)/C=C/c1ccc(O)c(OC(C)=O)c1 (stereo not given) | > 100
26 | CCOP(=O)(CN1CCNCCNCC1)OCC | > 100
27 | CC12CCC([C@H](C(O)C3CCCCC3)C1=O)C2(C)C (stereo not given in full) | > 100
28 | CC(C)Oc1ccc2c(c1)OCC1Cc3ccccc3OC21 (stereo not given) | > 100
29 | O=C1C(Cl)C(c2cccc(Cl)c2)N1c1ccc(-n2c(=S)[nH]c3ccccc3c2=O)cc1 (stereo not given) | 73.8
30 | COc1cc2c(cc1OC)CCc1cc(OC)c(OC)cc1CC2 | > 100
31 | CC(=O)N[C@@H](Cc1ccc(O)cn1)C(=O)NCc1cccc(Cl)c1 | > 100
32 | Cc1nn(C(=O)Cc2ccccc2)c2c1C(c1ccc(N(C)C)cc1)SC(N)=N2 (stereo not given) | > 100
33 | CNc1nc2n(CCO)c(-c3ccccc3)c(-c3ccccc3)nc-2c(=O)n1 | > 50
34 | NC(CCC(=O)O)C(=O)N1CCN(c2nc(N3CCCC3)c3nc(Cl)c(NCc4ccccc4)nc3n2)CC1 (stereo not given) | 28.4
35 | COC(=O)C(NC(=O)c1ccccc1)c1ccco1 (stereo not given) | > 100
36 | c1ccc2c(c1)nc1n2CNC1 | > 100
37 | Cc1ccc(C)c(COCCOCn2ccc(N)nc2=O)c1 | > 100
38 | CN(C)/C=N/S(=O)(=O)c1nn2c(C=O)c(-c3ccc(Cl)cc3)nc2s1 | 27.5
39 | NNc1nncc2n[nH]nc12 | > 100
40 | COC(=O)C1=C(C(=O)OC)c2cc(OC)ccc2C(C(=S)N(C)C)S1 (stereo not given) | > 100
41 | O=C1CCCC2(c3ccccc3)Nc3ccccc3N12 (stereo not given) | > 100

Tested on: SNB-19 CNS
Test: growth of human tumour cells (NCI), 48 h

Row | SMILES | TGI [µM]
42 | Cc1cc(=O)n2nc(CN3CCCCC3)sc2n1 | > 100
43 | CC(=O)OC1(C)C=CC(=O)C=C1 | > 100
44 | COc1ccc(C2C3=C(Nc4ncnn42)c2ccccc2OC3c2ccccc2)cc1 (stereo not given) | > 100
45 | O=c1oc2cc(O)ccc2c(O)c1C(c1ccccc1F)c1c(O)c2ccc(O)cc2oc1=O | > 100
46 | COC(=O)C(COC(C)=O)NC(=O)/C=C/c1ccc(O)c(OC(C)=O)c1 (stereo not given) | > 100
47 | CCOP(=O)(CN1CCNCCNCC1)OCC | > 100
48 | CC12CCC([C@H](C(O)C3CCCCC3)C1=O)C2(C)C (stereo not given in full) | > 100
49 | O=C1C(Cl)C(c2cccc(Cl)c2)N1c1ccc(-n2c(=S)[nH]c3ccccc3c2=O)cc1 (stereo not given) | 16.3
50 | COc1cc2c(cc1OC)CCc1cc(OC)c(OC)cc1CC2 | > 100
51 | CC(=O)N[C@@H](Cc1ccc(O)cn1)C(=O)NCc1cccc(Cl)c1 | > 100
52 | Cc1nn(C(=O)Cc2ccccc2)c2c1C(c1ccc(N(C)C)cc1)SC(N)=N2 (stereo not given) | > 100
53 | CNc1nc2n(CCO)c(-c3ccccc3)c(-c3ccccc3)nc-2c(=O)n1 | > 50
54 | NC(CCC(=O)O)C(=O)N1CCN(c2nc(N3CCCC3)c3nc(Cl)c(NCc4ccccc4)nc3n2)CC1 (stereo not given) | 34.4
55 | COC(=O)C(NC(=O)c1ccccc1)c1ccco1 (stereo not given) | > 100
56 | c1ccc2c(c1)nc1n2CNC1 | > 100
57 | Cc1ccc(C)c(COCCOCn2ccc(N)nc2=O)c1 | > 100
58 | CN(C)/C=N/S(=O)(=O)c1nn2c(C=O)c(-c3ccc(Cl)cc3)nc2s1 | 28.8
59 | NNc1nncc2n[nH]nc12 | > 100
60 | COC(=O)C1=C(C(=O)OC)c2cc(OC)ccc2C(C(=S)N(C)C)S1 (stereo not given) | > 100
61 | O=C1CCCC2(c3ccccc3)Nc3ccccc3N12 (stereo not given) | > 100

Tested on: IGROV1 ovarian
Test: growth of human tumour cells (NCI), 48 h

Row | SMILES | TGI [µM]
62 | Cc1cc(=O)n2nc(CN3CCCCC3)sc2n1 | > 100
63 | CC(=O)OC1(C)C=CC(=O)C=C1 | 31.6
64 | COc1ccc(C2C3=C(Nc4ncnn42)c2ccccc2OC3c2ccccc2)cc1 (stereo not given) | > 100
65 | O=c1oc2cc(O)ccc2c(O)c1C(c1ccccc1F)c1c(O)c2ccc(O)cc2oc1=O | > 100
66 | COC(=O)C(COC(C)=O)NC(=O)/C=C/c1ccc(O)c(OC(C)=O)c1 (stereo not given) | > 100
67 | CCOP(=O)(CN1CCNCCNCC1)OCC | > 100
68 | CC12CCC([C@H](C(O)C3CCCCC3)C1=O)C2(C)C (stereo not given in full) | > 100
69 | CC(C)Oc1ccc2c(c1)OCC1Cc3ccccc3OC21 (stereo not given) | > 100
70 | O=C1C(Cl)C(c2cccc(Cl)c2)N1c1ccc(-n2c(=S)[nH]c3ccccc3c2=O)cc1 (stereo not given) | 23.9
71 | COc1cc2c(cc1OC)CCc1cc(OC)c(OC)cc1CC2 | > 100
72 | CC(=O)N[C@@H](Cc1ccc(O)cn1)C(=O)NCc1cccc(Cl)c1 | > 100
73 | Cc1nn(C(=O)Cc2ccccc2)c2c1C(c1ccc(N(C)C)cc1)SC(N)=N2 (stereo not given) | > 100
74 | CNc1nc2n(CCO)c(-c3ccccc3)c(-c3ccccc3)nc-2c(=O)n1 | > 50
75 | NC(CCC(=O)O)C(=O)N1CCN(c2nc(N3CCCC3)c3nc(Cl)c(NCc4ccccc4)nc3n2)CC1 (stereo not given) | 40
76 | COC(=O)C(NC(=O)c1ccccc1)c1ccco1 (stereo not given) | > 100
77 | c1ccc2c(c1)nc1n2CNC1 | > 100
78 | Cc1ccc(C)c(COCCOCn2ccc(N)nc2=O)c1 | > 100
79 | NNc1nncc2n[nH]nc12 | > 100
80 | COC(=O)C1=C(C(=O)OC)c2cc(OC)ccc2C(C(=S)N(C)C)S1 (stereo not given) | > 100
81 | O=C1CCCC2(c3ccccc3)Nc3ccccc3N12 (stereo not given) | > 100

Tested on: NCI-H23 lung
Test: growth of human tumour cells (NCI), 48 h

Row | SMILES | TGI [µM]
82 | Cc1cc(=O)n2nc(CN3CCCCC3)sc2n1 | > 100
83 | CC(=O)OC1(C)C=CC(=O)C=C1 | 75.2
84 | COc1ccc(C2C3=C(Nc4ncnn42)c2ccccc2OC3c2ccccc2)cc1 (stereo not given) | > 100
85 | O=c1oc2cc(O)ccc2c(O)c1C(c1ccccc1F)c1c(O)c2ccc(O)cc2oc1=O | > 100
86 | COC(=O)C(COC(C)=O)NC(=O)/C=C/c1ccc(O)c(OC(C)=O)c1 (stereo not given) | > 100
87 | CC12CCC([C@H](C(O)C3CCCCC3)C1=O)C2(C)C (stereo not given in full) | > 100
88 | CC(C)Oc1ccc2c(c1)OCC1Cc3ccccc3OC21 (stereo not given) | > 100
89 | O=C1C(Cl)C(c2cccc(Cl)c2)N1c1ccc(-n2c(=S)[nH]c3ccccc3c2=O)cc1 (stereo not given) | 49.7
90 | COc1cc2c(cc1OC)CCc1cc(OC)c(OC)cc1CC2 | > 100
91 | CC(=O)N[C@@H](Cc1ccc(O)cn1)C(=O)NCc1cccc(Cl)c1 | > 100
92 | Cc1nn(C(=O)Cc2ccccc2)c2c1C(c1ccc(N(C)C)cc1)SC(N)=N2 (stereo not given) | > 100
93 | CNc1nc2n(CCO)c(-c3ccccc3)c(-c3ccccc3)nc-2c(=O)n1 | > 50
94 | NC(CCC(=O)O)C(=O)N1CCN(c2nc(N3CCCC3)c3nc(Cl)c(NCc4ccccc4)nc3n2)CC1 (stereo not given) | 32.3
95 | COC(=O)C(NC(=O)c1ccccc1)c1ccco1 (stereo not given) | > 100

From PubChem BioAssay (NCI)
